Assay results taken from the supplement of paper PMC10307832.

Tests used:
Assay in all cases: relative viability (nuclei count vs DMSO), 5 days (fraction); higher = more cells survive
RO-3306 + Vorinostat = compound: C1=CC2=C(C=CC(=C2)C=C3C(=O)NC(=NCC4=CC=CS4)S3)N=C1 [RO-3306] + O=C(CCCCCCC(=O)Nc1ccccc1)NO [Vorinostat] (partner 1 µM)
Method in brief: (§1)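 One day after seeding in 1536-well plates, lung cancer cell lines were dosed by pin tool. Dosing was either single-drug or a fixed anchor-drug dose plus five library-drug doses (not always all listed) in √10 steps. After 5 days, nuclei were stained in one fix-and-stain step and counted on 4× images, and relative viability is the nuclei count of treated wells over that of vehicle wells, given as the median of duplicate plates.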

[1] = compound: O=S(=O)(c1ccccc1)N(CC(F)(F)F)c1ccc(C(O)(C(F)(F)F)C(F)(F)F)cc1 + Cc1nc(Nc2ncc(C(=O)Nc3c(C)cccc3Cl)s2)cc(N2CCN(CCO)CC2)n1 [Dasatinib] (partner 0.075 µM)
Method in brief: as §1

RO-3306 + Pemetrexed = compound: C1=CC2=C(C=CC(=C2)C=C3C(=O)NC(=NCC4=CC=CS4)S3)N=C1 [RO-3306] + Nc1nc2[nH]cc(CCc3ccc(C(=O)N[C@@H](CCC(=O)O)C(=O)O)cc3)c2c(=O)[nH]1 [Pemetrexed] (partner 0.2 µM)
Method in brief: as §1

RO-3306 + Navitoclax = compound: C1=CC2=C(C=CC(=C2)C=C3C(=O)NC(=NCC4=CC=CS4)S3)N=C1 [RO-3306] + CC1(C)CCC(c2ccc(Cl)cc2)=C(CN2CCN(c3ccc(C(=O)NS(=O)(=O)c4ccc(N[C@H](CCN5CCOCC5)CSc5ccccc5)c(S(=O)(=O)C(F)(F)F)c4)cc3)CC2)C1 [Navitoclax] (partner 0.5 µM)
Method in brief: as §1

Row | Cell Line | relative viability (RO-3306 + Vorinostat; first compound 0.01 µM) | relative viability (RO-3306 + Vorinostat; first compound 0.03162 µM) | relative viability (RO-3306 + Vorinostat; first compound 0.1 µM) | relative viability (RO-3306 + Vorinostat; first compound 0.3162 µM) | relative viability (RO-3306 + Vorinostat; first compound 1 µM) | relative viability ([1]; first compound 0.8 µM) | relative viability ([1]; first compound 2.53 µM) | relative viability ([1]; first compound 8 µM) | relative viability (RO-3306 + Pemetrexed; first compound 0.01 µM) | relative viability (RO-3306 + Pemetrexed; first compound 0.03162 µM) | relative viability (RO-3306 + Pemetrexed; first compound 0.1 µM) | relative viability (RO-3306 + Pemetrexed; first compound 0.3162 µM) | relative viability (RO-3306 + Pemetrexed; first compound 1 µM) | relative viability (RO-3306 + Navitoclax; first compound 0.01 µM) | relative viability (RO-3306 + Navitoclax; first compound 0.03162 µM) | relative viability (RO-3306 + Navitoclax; first compound 0.1 µM) | relative viability (RO-3306 + Navitoclax; first compound 0.3162 µM) | relative viability (RO-3306 + Navitoclax; first compound 1 µM)
1 | NCI-H322M | 0.878 | 0.859 | 0.807 | 0.868 | 0.584 | 0.261 | 0.267 | 0.288 | 0.624 | 0.613 | 0.574 | 0.695 | 0.592 | 1.24 | 1.14 | 1.25 | 1.22 | 1.19
2 | PC-3 [JPC-3] | 0.649 | 0.629 | 0.648 | 0.735 | 0.524 | 1.03 | 1.05 | 0.972 | 0.783 | 0.753 | 1.01 | 1.07 | 0.37 | 1.04 | 0.697 | 0.816 | 0.805 | 0.745
3 | NCI-H1944 | 0.595 | 0.566 | 0.588 | 0.562 | 0.509 | 0.222 | 0.233 | 0.191 | 0.794 | 0.63 | 0.663 | 0.611 | 0.671 | 1.11 | 1.03 | 0.963 | 1.09 | 0.993
4 | HCC-827 | 0.946 | 0.7 | 0.881 | 0.789 | 0.859 | 0.37 | 0.36 | 0.316 | 0.265 | 0.26 | 0.27 | 0.254 | 0.277 | 1.04 | 0.988 | 0.99 | 0.994 | 0.998
5 | NCI-H1666 | 0.803 | 0.952 | 1.04 | 1.05 | 0.972 | 0.765 | 0.68 | 0.683 | 0.94 | 0.798 | 0.819 | 0.836 | 0.868 | 0.954 | 0.871 | 0.858 | 0.86 | 0.779
6 | NCI-H2126 | 0.747 | 0.679 | 0.812 | 0.879 | 0.733 | 0.753 | 0.634 | 0.535 | 0.673 | 0.671 | 0.707 | 0.735 | 0.676 | 0.868 | 0.816 | 0.822 | 0.858 | 0.756
7 | LXF-289 | 0.789 | 0.807 | 0.695 | 0.749 | 0.744 | 0.163 | 0.141 | 0.153 | 0.805 | 0.8 | 1.04 | 0.9 | 0.868 | 0.992 | 0.961 | 0.972 | 0.976 | 0.993
8 | NCI-H1734 | 0.802 | 0.631 | 0.733 | 0.828 | 0.734 | 0.553 | 0.464 | 0.462 | 0.394 | 0.41 | 0.372 | 0.414 | 0.432 | 1 | 0.564 | 0.922 | 0.797 | 0.873
